From PubChem BioAssay AID1902 (Broad Institute, 2009)
The source made the active and inactive calls.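 Rule for the calls: active = EC50 no more than a set limit of log units above the highest dose; inactive = the rest.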

What follows are compounds tested against S. pyogenes SKKanGAS, kanamycin survival, BacTiterGlo, 6 h (assay: SKKanGAS survival reduction under kanamycin, dose response, streptokinase promoter inhibitor project, SKKanGAS strain, luminescence, dose confirmation (AID 1902);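 note: lower survival reflects blocked streptokinase promoter driving kanamycin resistance gene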).
With C[N+](C)(C)c1ccc(/C=N/Nc2nc(Cl)c(C#N)c(Cl)c2Cl)cc1 the EC50 was > 15 µM (inactive).
CC(C)c1ccccc1OCC(O)CN(CC(O)COc1cccc2ccccc12)C(C)C (stereo not drawn) showed an EC50 of 4.24 µM.
CC(=O)OCC1=C(C(=O)O)N2C(=O)C(NC(=O)c3ccc(F)cc3)C2SC1 (stereo not drawn) gave an EC50 of 2.9 µM.
In the case of CCCCCCCCCCOC(=O)Cn1c(COc2cccc(C)c2)[n+](C)c2ccccc21, the EC50 is reported as 2.83 µM.
Cc1nn(-c2ccccc2)c(Cl)c1C1C(C#N)=C(N)OC2=C1C(=O)CC(C)(C)C2 (stereo not drawn) was tested, and the EC50 was 1.45 µM.
CCCCCC(=O)Cc1cc(O)cc2c1C(=O)Oc1cc(O)c(C(=O)O)c(CCCCC)c1O2 gave an EC50 of 6.67 µM.
Work on O=C(Nc1nnc(C2=COCCO2)o1)c1cccc(F)c1 yielded an EC50 of 2.37 µM.
Cc1cccc(C)c1OCC(O)CN1CCC(CN2C(=O)c3cccc4cccc(c34)C2=O)CC1 (stereo not drawn) was tested, and the EC50 was 7.35 µM.
For N#CC1=C(N)SC(N)=C(C#N)C1c1c(Cl)cccc1Cl, the EC50 was 8.78 µM.
CCOC(=O)c1sc2ncnc(NCC(c3cccs3)N(C)C)c2c1C (stereo not drawn) gave an EC50 of 7.95 µM.
O=C(C[n+]1cnn(CC(=O)c2ccc(Cl)cc2Cl)c1)c1ccc([N+](=O)[O-])cc1 showed an EC50 of 12.3 µM.
Work on CCCCCCc1cc2cc(C(=O)OCC)c(=O)oc2cc1O yielded an EC50 of 5.46 µM.
Compound CC(C)C[C@H](NC(=O)c1nc[nH]c1C(=O)NCc1ccccc1)C(=O)OCc1ccccc1 has an EC50 of 5.01 µM.
Compound CCS(=O)(=O)N1Cc2ccccc2CC1C(=O)Nc1nnc(SCc2ccc(C#N)cc2)s1 (stereo not drawn) has an EC50 of 8.26 µM.
Cc1ccc(Cl)cc1N1CCN(C(=O)c2cn(C)c(=O)c3c2c2ccccc2n3C)CC1 gave an EC50 of 4.92 µM.
Work on O=c1cc(-c2ccccc2Cl)oc2c(NS(=O)(=O)c3cc(Cl)cc(Cl)c3O)ccc(O)c12 yielded an EC50 of 0.552 µM.
CCCCNc1c(-c2ccc(-c3ccc(C(C)=O)cc3)c(OC)c2)nc2cnccn12 gave an EC50 of 5.58 µM.
For Cc1cccc(OCCCCc2c(C)n[nH]c2C)c1C, the EC50 was 4.74 µM.
For O=S(=O)(Nc1nccs1)c1ccc(Nc2nnc(-c3ccccc3)c3ccccc23)cc1, the EC50 was 2.51 µM.
COC(=O)C1(C(C[N+](=O)[O-])c2ccc(C)cc2)C(=O)NCC1c1ccco1 (stereo not drawn) gave an EC50 of 7.39 µM.
CCC1CCCCN1S(=O)(=O)c1ccc(NC(=O)c2nc(S(C)(=O)=O)ncc2Cl)cc1 (stereo not drawn) gave an EC50 of 9.42 µM.
Cc1ccc2nc(-c3ccc(NS(=O)(=O)c4ccc(F)cc4)cc3)sc2c1 gave an EC50 of 3.31 µM.
In the case of O=C(OCc1ccc(-c2ccccc2)cc1)c1cccc(O)c1, the EC50 is reported as 6.29 µM.
Cc1ccc(C(NC(=O)NC(C)c2ccccc2)C(Cl)(Cl)Cl)cc1F (stereo not drawn) gave an EC50 of 6.41 µM.
Cc1ccc(Cc2cnc(N3C(=N)SC(C)C3=O)s2)cc1 (stereo not drawn) gave an EC50 of 0.298 µM.
Work on Cc1csc2nc(CSc3nc4ccccc4o3)c(Br)n12 yielded an EC50 of 6.42 µM.
O=C(OCc1ccccc1)c1cccc(-c2nnn(Cc3ccccc3)n2)c1 was tested, and the EC50 was 2.73 µM.
COC(=O)c1cc(-c2ccc(Br)cc2)c2c(=O)[nH]c(=O)n(C)c2n1 showed an EC50 of 1.22 µM.
CC(C)(C)c1ccc(C(=O)Nc2nnc(C3=COCCO3)o2)cc1 showed an EC50 of 0.446 µM.
For COc1ccc(-c2n[nH]c(C)c2-c2ccc(Cl)cc2)c(O)c1, the EC50 was 6.52 µM.
Work on CCC(=O)Nc1nc2ccccc2n1Cc1ccccc1C yielded an EC50 of 1.62 µM.
Cc1nc(C)c(C(=O)N/N=C/c2cc(Br)ccc2O)s1 gave an EC50 of 2 µM.
With CCCCNc1c(-c2cccc(-c3ccc(OC)cc3)c2)nc2ccc(C)cn12 the EC50 was 4.05 µM.
COc1ccccc1N=Nc1nc(-c2ccccc2)c(-c2ccccc2)[nH]1 showed an EC50 of 1.39 µM.
For c1ccc(-c2cc(-c3ccncc3)nc3ccc4ccccc4c23)cc1, the EC50 was 2.21 µM.
Compound Oc1ccc(/C=N/n2c3ccccc3c3ccccc32)cc1 has an EC50 of 5.79 µM.
Nc1nc(-c2ccccc2)c(N=Nc2cccc3ccccc23)s1 gave an EC50 of 4 µM.
O=C1NC(=Nc2ccc(Cl)cc2)SC1Cc1cc(Cl)ccc1Cl (stereo not drawn) showed an EC50 of 2.97 µM.
O=[N+]([O-])c1cccnc1N1CCC(c2cc(-c3ccc(Cl)cc3Cl)n[nH]2)CC1 gave an EC50 of 1.24 µM.
O=C(Nc1cccnc1)Nc1cc(Cl)cc(Cl)c1 showed an EC50 of 8.7 µM.
Compound CC(C)CN(Cc1cc(=O)oc2cc(-c3ccccc3)c(O)cc12)CC(C)C has an EC50 of 3.88 µM.
Cc1cc(C)n(-c2nc(Nc3ccccc3C(F)(F)F)nc(-n3nc(C)cc3C)n2)n1 showed an EC50 of 2.67 µM.
With N=C1S/C(=C\c2cn[nH]c2-c2ccc(F)cc2)C(=O)N1c1ccccc1F the EC50 was 3.65 µM.
CC1(C)Oc2ccc3ccc(=O)oc3c2/C(=C/NNC(N)=S)C1=O gave an EC50 of 7.51 µM.
CCCC1=NN2C(=N)/C(=C\c3cc(C)n(-c4cc(C)cc(C)c4)c3C)C(=O)N=C2S1 gave an EC50 of 1.83 µM.
Nc1ccc(C#Cc2ccc3oc4ccccc4c(=O)c3c2)cc1 showed an EC50 of 1.39 µM.
CCCCCCCOC(=O)C[N+](C)(C)CCOC1CC2CCC1(C)C2(C)C (stereo not drawn) showed an EC50 of 4.52 µM.
Compound O=C(CCCCCNC(=O)c1ccccc1)N=Nc1c(O)[nH]c2c(Br)cc(Br)cc12 has an EC50 of 5.43 µM.
With COc1cc([N+](=O)[O-])cc(/C=N/NC(=O)c2ccc(C)nc2)c1O the EC50 was 2.61 µM.
O=C(Nc1nnc(-c2ccccn2)o1)c1cccc(Cl)c1 showed an EC50 of 1.66 µM.
CCCCC/C=C\C/C=C\C/C=C\C/C=C\CCCC(=O)Nc1ccc(O)cc1 was tested, and the EC50 was 1.2 µM.
In the case of COc1cccc(-c2nn(C)c3sc(C(=O)Nc4ccc5c(c4)OCCO5)cc23)c1, the EC50 is reported as 3.65 µM.
With CCCCc1nc2cc(C(=O)N3CCC(OCCOC)CC3)ccc2o1 the EC50 was > 15 µM (inactive).
In the case of O=[N+]([O-])c1ccc(O)c(-c2nc(-c3ccccc3)c(-c3cccs3)[nH]2)c1, the EC50 is reported as 0.979 µM.
CC(C)c1nc(NCc2ccccc2)c(C#N)c2c1CCCC2 gave an EC50 of 3.55 µM.
For O=C(NC(NC(=S)Nc1ccccc1Cl)C(Cl)(Cl)Cl)c1cccc(Cl)c1 (stereo not drawn), the EC50 was 1.59 µM.
Work on CCc1nc(SCC(=O)Nc2ccccc2OC)c2c(C)c(C)sc2n1 yielded an EC50 of 6.58 µM.
COc1ccc(/C=C/C(=O)NC(=S)NNC(=O)c2cnccn2)cc1 was tested, and the EC50 was 5.92 µM.
In the case of CC(C)(C)c1ccc(S(=O)(=O)N2CCC(c3nc4ccc(Cl)cc4[nH]3)CC2)cc1, the EC50 is reported as 5.11 µM.
Compound Cc1cc(C)c(COc2ccc(/C=N/n3c(C)n[nH]c3=S)cc2)c(C)c1 has an EC50 of 5.33 µM.
Compound CCOC(=O)c1cnn(-c2nc3c(C)cccc3s2)c1C(F)(F)F has an EC50 of 12.5 µM.
CC(C)COC(=O)c1cccc2c1-c1ccccc1/C2=N\O showed an EC50 of 4.99 µM.
NNC(=O)/C(=N/Nc1ccccc1)S(=O)(=O)c1ccc(Cl)cc1 was tested, and the EC50 was 8.15 µM.
For COCCCn1c(N)c(C(=O)Nc2ccccc2)c2nc3ccccc3nc21, the EC50 was 11.8 µM.
O=C(NC(=S)N1CCN(c2ccc(Cl)cc2[N+](=O)[O-])CC1)c1cccs1 was tested, and the EC50 was 2.75 µM.
With Cc1cccc(-n2ncc3c2CCCC3NC(=O)CCN2Cc3ccccc3C2=O)c1C (stereo not drawn) the EC50 was > 15 µM (inactive).
In the case of N#CC(C#N)=NNc1ccc([N+](=O)[O-])cc1, the EC50 is reported as 3.72 µM.
CCCOC(=O)c1ccc(Oc2cn[nH]c2-c2ccc(OC)cc2O)cc1 was tested, and the EC50 was 7.36 µM.
For Clc1ccc(C2=CSC3=Nc4cccc5cccc(c45)N23)cc1, the EC50 was 7.43 µM.
In the case of CCOC(=O)c1cnc(-n2nc(C)cc2C)nc1Nc1ccc(C)cc1, the EC50 is reported as 0.101 µM.
Compound Cc1cc(C(=O)N/N=C/c2cc(N=Nc3ccccc3)ccc2O)n[nH]1 has an EC50 of 2.02 µM.
Work on CCc1sc(N(C(=O)Cc2ccccc2)c2cccc(F)c2)nc1-c1ccc(C)cc1 yielded an EC50 of 1.77 µM.
Cc1nnc(SC(C(=O)Nc2cc(Cl)cc(Cl)c2)c2ccccc2)[nH]c1=O (stereo not drawn) gave an EC50 of 10.6 µM.
CCc1ccc(NC2=NCC(c3ccccc3)S2)cc1 (stereo not drawn) was tested, and the EC50 was 6.4 µM.
CC(=O)O[C@H]1CC[C@]2(C)[C@H]3CC=C4[C@@H]5[C@@H](C)[C@H](C)CC[C@]5(C(=O)O)CC[C@@]4(C)[C@]3(C)CC[C@H]2C1(C)C was tested, and the EC50 was 2.83 µM.
For Cc1ccc2nc(-c3ccc(N)cc3)sc2c1, the EC50 was > 15 µM (inactive).
For Cc1nc2c(=O)n(C)c(=O)nc-2n(C)n1, the EC50 was 2.77 µM.
O=C(CCCN1C(=O)/C(=C\c2cccs2)SC1=S)Nc1cc([N+](=O)[O-])ccc1O gave an EC50 of 5.04 µM.
